No end group written: not given here.

We go through two compounds from publication PMC9166766 (Experimental & Molecular Medicine, 2022).

Series [1] deals with CNA (calcineurin catalytic subunit). Nature of the series: In vitro peptide competition assay (GST-tagged peptide / His6-tagged CNA). In kind it is binding. The conditions noted are these: competitor CABIN1-L-1; molar ratio GST-peptide to competitor 1:50 to 1:400.
The next series has as its system ERK2. As to the kind of experiment: In vitro kinase assay, ERK2. To be noted: GST-tagged peptide, 1 h, 30 °C, 50 μM ATP. In kind it is biochemical. As to the method:
(§1) We used the purified GST-tagged peptides for the in vitro kinase assays with activated recombinant kinases obtained from Proqinase GmbH (Freiburg, Germany). We performed the kinase assays in reaction buffer (50 mM HEPES-NaOH, pH 7.5, 3 mM MgCl2, 3 mM MnCl2, 3 μM sodium orthovanadate, 1 mM dithiothreitol, 50 μM unlabeled ATP, 5 μCi ^32P-γ-ATP) for 1 h at 30 °C. We stopped the reaction by adding 5× sample buffer and separated the proteins using SDS-PAGE. The gel was stained with Coomassie Brilliant Blue, dried, and developed on X-ray film.
(§2) The phosphorylated threonine of the immunoprecipitated peptide with HA antibody was detected with [PXpTP] antibody. b In vitro kinase assays using purified GST-tagged CABIN1 peptide and PKC downstream kinases. c In vitro kinase assays using purified GST-tagged peptides and kinases included in the MAPK family. d Immunoprecipitation assays using Flag-MAPKs and HA-CABIN1 in HEK293T cells. e, f In vitro kinase assays using p38α and substituted CABIN1 peptides. g Jurkat T cells expressing HA-mCherry-tagged CABIN1 peptide were treated with 10 μM p38α inhibitors for 16 h. Immunoprecipitation was performed with HA antibody and detected by western blotting. h Phosphorylated threonine and peptide-bound CNA of g were measured using ImageJ, and the ratio of phosphorylation and calcineurin binding to the CABIN1 peptide was calculated (n = 6). […]

The test system of series [2] is Jurkat T cells (T-cell activation gene mRNA). As to the kind of experiment: Real-time quantitative PCR of activated Jurkat T cells. In kind it is cell-based. To be noted: PMA and ionomycin; for NINJ1 and ZP4 expression upon T-cell activation: Supplementary Fig. 5a, b.
From the text: We collected Jurkat T cells with QIAzol Lysis Reagent (Qiagen) to extract total RNA. We reverse transcribed cDNAs from isolated RNA using AMV Reverse Transcriptase and random hexamers. We performed real-time quantitative PCR for each cDNA using TB Green® Premix Ex Taq™ (TaKaRa, Kusatsu, Japan) on a CFX Connect Real-time PCR Detection System (Bio-Rad, Hercules, CA, USA) and normalized the expression to that of 18 S rRNA or GAPDH.
The experiment was independently repeated at least three times, and the data are presented as the mean ± standard deviation. Statistical differences were determined using two-tailed Student’s t-test. *p < 0.05, **p < 0.01, ***p < 0.001, NC negative control.
The subject of another series is NFATC2 dephosphorylation. Nature of the series: NFAT mobility shifting assay in Jurkat T cells. In kind it is cell-based. The conditions noted are these: HA-mCherry-tagged peptides, PMA and ionomycin 2 h, n = 7.
The subject of another series is MKK4. As to the kind of experiment: In vitro kinase assay, MKK4. It counts as biochemical. The conditions noted are these: GST-tagged peptide, 1 h, 30 °C, 50 μM ATP. As for the experimental part: as §1, §2
Series [3] deals with calcineurin (CNA) phosphatase activity. As to the kind of experiment: Calcineurin cellular activity assay in Jurkat T cells. In kind it is cell-based. The conditions noted are these: HA-mCherry-tagged peptides, PMA and ionomycin. As to the method:
(§3) We measured calcineurin phosphatase activity in vitro using a calcineurin phosphatase assay kit (BML-AK804, Enzo Life Sciences, Farmingdale, NY, USA). We incubated GST or GST-tagged peptides with CNA for 30 min at room temperature and then followed the manufacturer’s instructions. To measure endogenous calcineurin phosphatase activity, we transiently transfected Jurkat T cells with CAG-HA-mCherry-peptides by electroporation. After 24 h, we pretreated the Jurkat T cells with FK506 for 1 h before activating them with PMA and ionomycin. Next, we washed the cells with TBS buffer (20 mM Tris, pH 7.2, 150 mM NaCl), resuspended them with lysis buffer from the calcineurin cellular activity assay kit (BML-AK816, Enzo Life Sciences), and kept them on ice for 30 min. We collected the lysate supernatant and removed free phosphate by gel filtration using the Desalting Column Resin included in the kit. Next, we followed the manufacturer’s instructions.
(§4) Jurkat T cells expressing only HA-mCherry were used as a negative control, and cells treated with FK506 were used as a positive control. d In vitro calcineurin phosphatase activity assays using purified GST-tagged peptides. Purified GST was used as a negative control. […] Statistical differences were determined using one-way ANOVA. *p < 0.05, NS nonsignificant, NC negative control.

Series [4] in a line: Protein stability of HA-mCherry-VIVIT peptides in Jurkat T cells (western blot, FACS). In kind it is cell-based. To be noted: mCherry-tagged, vs VIVIT 15-mer. A general note: Immunoblotting shows a protein as a band on a membrane.
Method: We quantified the expression of mCherry-tagged VIVIT peptides using LSRII (SORP) (Becton Dickinson, Franklin Lakes, NJ, USA). We analyzed the results with FlowJo (Tree Star, Inc., Ashland, OR, USA).
Protein expression l evels of VIVIT peptides were detected with HA antibody in Jurkat T cells expressing HA-mCherry -VIVIT peptides. c mCherry expression intensity and distribution
cells/sample) d mRNA expression level of mCherry was measured by qRT -PCR. (n=4) Values shown are the mean ± standard deviation. SE, short exposure, LE, long expo sure, NC, negative
The test system of the next series is p38α. As to the kind of experiment: In vitro kinase assay, p38α. It counts as biochemical. The conditions noted are these: GST-tagged peptide, 1 h, 30 °C, 50 μM ATP. As to the method: as §1, §2
Another series concerns tNFATC2 nuclear import. Nature of the series: Nuclear localization of EGFP-tNFATC2 by confocal microscopy in Jurkat T cells. In kind it is cell-based. The conditions noted are these: 40 nM PMA and 1 μM ionomycin 4 h, FK506 0.5 μM, n = 10-12.
Series [5] concerns calcineurin (CNA) phosphatase activity. As to the kind of experiment: In vitro calcineurin phosphatase activity assay. In kind it is biochemical. The conditions noted are these: purified GST-tagged peptides with CNA 30 min room temperature. As for the experimental part: as §3, §4
In series [6] the test system is CABIN1 peptide threonine 9 phosphorylation. As to the kind of experiment: Phosphorylation of threonine 9 of the expressed peptide in Jurkat T cells (PXpTP western blot, LC-MS/MS). In kind it is cell-based. The conditions noted are these: HA-mCherry-tagged peptide; western blot (PXpTP antibody) and LC-MS/MS. The source says: We lysed the cells in IP150 buffer and immunoprecipitated Flag- and HA-tagged proteins with Anti-FLAG ® M2 Affinity Gel (Sigma–Aldrich) and Pierce™ Anti-HA Agarose (Thermo Fisher Scientific), respectively. The composition of the buffer and the subsequent process was described previously. To quantify the western blot results, we measured the band areas using ImageJ (https://imagej.nih.gov/ij/).
We purified HA-mCherry-tagged CABIN1-L-1-2 peptides expressed in Jurkat T cells by immunoprecipitating 4 mg of lysates with Pierce™ Anti-HA Agarose. We eluted the bead-bound proteins by competition with 1 mg/ml HA peptide. After separation by SDS-PAGE and staining with Coomassie Brilliant Blue, we analyzed the purified proteins by LC-MS/MS (ProteomeTech, Inc., Seoul, Korea).
RU response units, NC negative control.
The phosphorylated threonine of the immunoprecipitated peptide with HA antibody was detected with [PXpTP] antibody. b In vitro kinase assays using purified GST-tagged CABIN1 peptide and PKC downstream kinases. c In vitro kinase assays using purified GST-tagged peptides and kinases included in the MAPK family. d Immunoprecipitation assays using Flag-MAPKs and HA-CABIN1 in HEK293T cells. e, f In vitro kinase assays using p38α and substituted CABIN1 peptides. g Jurkat T cells expressing HA-mCherry-tagged CABIN1 peptide were treated with 10 μM p38α inhibitors for 16 h. Immunoprecipitation was performed with HA antibody and detected by western blotting. h Phosphorylated threonine and peptide-bound CNA of g were measured using ImageJ, and the ratio of phosphorylation and calcineurin binding to the CABIN1 peptide was calculated (n = 6). […] Statistical differences were determined using one-way ANOVA. *p < 0.05, **p < 0.01, ***p < 0.001, CBB Coomassie Brilliant Blue, NC negative control.

A further series has as its system JNK1. Nature of the series: In vitro kinase assay, JNK1. It counts as biochemical. The conditions noted are these: GST-tagged peptide, 1 h, 30 °C, 50 μM ATP. As to the method:
as §1, §2

Details of series [7]: method as in PMID 24319282. To be noted: ref [17]; cited from earlier work. The text has this: FK506 and cyclosporin A, respectively cooperating with FKBP12 or cyclophilin, spatially hinder the substrates’ access to the active site of calcineurin, inhibiting its phosphatase activity[30],[31].

Method for NFATC2 dephosphorylation: Jurkat T cells expressing GST-tagged peptides were treated with PMA and ionomycin for activation. […] For dephosphorylation of NFATC2, Jurkat T cells were treated with PMA and ionomycin for 2 h. c Hyper- and hypophosphorylated NFATC2 of b was measured using ImageJ, and the hypo/hyper ratio was calculated (n = 7). d Snapshot images of the activated Jurkat T cells expressing the indicated peptides and tNFATC2 were obtained using confocal microscopy. The expression and localization of peptides and tNFATC2 are shown as mCherry (red) and EGFP (green), respectively. Nuclei were stained with Hoechst (blue). Scale bar, 50 μm e Nuclear-localized tNFATC2 was measured by calculating the colocalization ratio between Hoechst (M1) and EGFP (M2). […] Statistical differences were determined using a two-tailed Student’s t-test (a, c) or one-way ANOVA (e). ***p < 0.001, NC negative control.
Method for tNFATC2 nuclear import: We transfected Jurkat T cells with the pCAG-EGFP-tNFATC2-IRES-mCherry-peptide by electroporation. After two days, we pretreated these cells with 0.5 μM FK506 for 30 min. Then, we treated them with 40 nM PMA and 1 μM ionomycin under culture conditions for 4 h. Before imaging by a confocal laser scanning microscope (Nikon, Tokyo, Japan), we treated the cells with 10 μg/ml Hoechst 33342 (Invitrogen, Waltham, MA, USA) to stain nuclei. Colocalization analysis of mCherry and Hoechst was performed with ImageJ and its plugin JACoP to measure the Manders coefficient[23],[24].
Scale bar, 50 μm e Nuclear-localized tNFATC2 was measured by calculating the colocalization ratio between Hoechst (M1) and EGFP (M2).

As for “CABIN1-L-1-2: 10 amino acids from proline 2146 to proline 2155 of full-length CABIN1; expressed GST-, GAL4 DBD- or HA-mCherry-tagged (PEITVTPPTP; also: expressed GST-, GAL4 DBD- or HA-mCherry-tagged, end not given here)”, the “interference with interaction between GST-tagged VIVIT peptide and His6-tagged CNA” value in series [1] is reported as “dose-dependently interfered with the interaction”. For the same compound, the “phosphorylation by ERK2” value in the series on ERK2 is recorded as “phosphorylated”. Further, the “NINJ1 and ZP4 expression upon T-cell activation” value in [2] is “unaffected”. In addition, the “RNA levels of T-cell activation genes (qRT-PCR) vs VIVIT peptide” value in series [2] (at least three repeats) was “reduced the RNA levels of these genes more efficiently than the VIVIT peptide”. Besides, the “NFATC2 dephosphorylation / band shift” value in the series on NFATC2 dephosphorylation was “significantly inhibited the NFATC2 band shift”. Moreover, the “phosphorylation by MKK4” value with MKK4 is “directly phosphorylate”. Further, the “calcineurin phosphatase activity in cells” value in [3] is reported as “did not”. Moreover, the “stability under physiological conditions vs full-length VIVIT peptide (15-mer)” value in series [4] was “more stable than the full-length VIVIT peptide (15-mer)”. Further, in the series on p38α, the “phosphorylation by p38α” value is “phosphorylated”. Also, the “proportion of nuclear-localized tNFATC2” value with tNFATC2 nuclear import is reported as “slightly higher”. Also, the “calcineurin phosphatase activity in vitro” value in series [5] is “did not reduce the phosphatase activity of CNA in vitro”. Moreover, in series [6], the “threonine 9 phosphorylation in Jurkat T cells” value is on record as “observed threonine 9 phosphorylation”. Further, the “phosphorylation by JNK1” value in the series on JNK1 was “phosphorylated”.
On to `C=CC[C@@H]1/C=C(\C)C[C@H](C)C[C@H](OC)[C@H]2O[C@@](O)(C(=O)C(=O)N3CCCC[C@H]3C(=O)O[C@H](/C(C)=C/[C@@H]3CC[C@@H](O)[C@H](OC)C3)[C@H](C)[C@@H](O)CC1=O)[C@H](C)C[C@@H]2OC` [FK506, reference compound], for which, in series [2], the “NINJ1 and ZP4 expression upon T-cell activation” value is on record as “repressed”. In addition, the “NFATC2 dephosphorylation / band shift” value in the series on NFATC2 dephosphorylation is recorded as “inhibited the NFATC2 band shift”. In addition, the “calcineurin phosphatase activity in cells” value in [3] is “decreased the phosphatase activity of CNA”. Moreover, the side effects entry in series [7] was “nephrotoxicity, fibrogenesis, neurotoxicity, and diabetes”. Further, the “proportion of nuclear-localized tNFATC2” value in the series with tNFATC2 nuclear import is “lowest”.
